Measurements: patent US11643391B2, “Prodrugs and conjugates of dimethyltryptamine” (priority 2021, dated 2023)

Key:
[1] = Stability in Mouse Plasma; format: in vitro ADME
[2] = Stability in SGF without pepsin; format: physicochemical
Stability in PBS pH 6.5 = details: for half-life: PBS, pH 6.5, T½
physchem = details: buffer, pH 6.5
[3] = Stability in SGF with pepsin; format: physicochemical
[4] = background statement, cited from earlier work
[5] = Table 8, if calculated T½ < 0, T½ reported as 9999 min

## CC(OC(=O)n1cc(CCN(C)C)c2ccccc21)OC(=O)C(C)(C)C (racemic) [VLS-03-15]
[1]; Table 9, 0 min
  Remaining Percentage: 100.00%
[1]; Table 9, 15 min
  Remaining Percentage: 0.00%
[1]; Table 9, 30 min
  Remaining Percentage: 0.00%
[1]; Table 9, 60 min
  Remaining Percentage: 0.00%
[1]; Table 9, 120 min
  Remaining Percentage: 0.00%
[2]; 0 min
  Peak Area of MRM: 205.0/159.8 (analyte VLS-03-15 Parent): 7.05E+05
[2]; 30 min
  Peak Area of MRM: 205.0/159.8 (analyte VLS-03-15 Parent): 6.94E+05
[2]; 60 min
  Peak Area of MRM: 205.0/159.8 (analyte VLS-03-15 Parent): 6.55E+05
[2]; 120 min
  Peak Area of MRM: 205.0/159.8 (analyte VLS-03-15 Parent): 7.09E+05
[2]; 240 min
  Peak Area of MRM: 205.0/159.8 (analyte VLS-03-15 Parent): 6.96E+05
[2]; Table 8, 0 min
  Remaining Percentage: 100.00%
[2]; Table 8, 30 min
  Remaining Percentage: 101.12%
[2]; Table 8, 60 min
  Remaining Percentage: 103.35%
[2]; Table 8, 120 min
  Remaining Percentage: 105.28%
[2]; Table 8, 240 min
  Remaining Percentage: 97.98%
[2]; [5]
  half-life: 7840 min
[2]; VLS-03-15 standard
  Peak Area of MRM: 205.0/159.8 (analyte VLS-03-15 Parent): 6.10E+05
Stability in PBS pH 6.5; 0 min
  Peak Area of MRM: 205.0/159.8 (analyte VLS-03-15 Parent): 6.56E+05
Stability in PBS pH 6.5; 30 min
  Peak Area of MRM: 205.0/159.8 (analyte VLS-03-15 Parent): 6.55E+05
Stability in PBS pH 6.5; 60 min
  Peak Area of MRM: 205.0/159.8 (analyte VLS-03-15 Parent): 6.28E+05
Stability in PBS pH 6.5; 120 min
  Peak Area of MRM: 205.0/159.8 (analyte VLS-03-15 Parent): 5.86E+05
Stability in PBS pH 6.5; 240 min
  Peak Area of MRM: 205.0/159.8 (analyte VLS-03-15 Parent): 5.51E+05
Stability in PBS pH 6.5; Table 8, 0 min
  Remaining Percentage: 100.00%
Stability in PBS pH 6.5; Table 8, 30 min
  Remaining Percentage: 96.93%
Stability in PBS pH 6.5; Table 8, 60 min
  Remaining Percentage: 89.82%
Stability in PBS pH 6.5; Table 8, 120 min
  Remaining Percentage: 89.44%
Stability in PBS pH 6.5; Table 8, 240 min
  Remaining Percentage: 82.54%
Stability in PBS pH 6.5; VLS-03-15 standard
  Peak Area of MRM: 205.0/159.8 (analyte VLS-03-15 Parent): 6.74E+05
physchem
  half-life: 922 min
[3]; 0 min
  Peak Area of MRM: 205.0/159.8 (analyte VLS-03-15 Parent): 6.75E+05
[3]; 30 min
  Peak Area of MRM: 205.0/159.8 (analyte VLS-03-15 Parent): 7.21E+05
[3]; 60 min
  Peak Area of MRM: 205.0/159.8 (analyte VLS-03-15 Parent): 7.26E+05
[3]; 120 min
  Peak Area of MRM: 205.0/159.8 (analyte VLS-03-15 Parent): 7.14E+05
[3]; 240 min
  Peak Area of MRM: 205.0/159.8 (analyte VLS-03-15 Parent): 7.15E+05
[3]; Table 8, 0 min
  Remaining Percentage: 100.00%
[3]; Table 8, 30 min
  Remaining Percentage: 97.29%
[3]; Table 8, 60 min
  Remaining Percentage: 107.53%
[3]; Table 8, 120 min
  Remaining Percentage: 103.18%
[3]; Table 8, 240 min
  Remaining Percentage: 102.22%
[3]; [5]
  T½: 166.65 h
[3]; VLS-03-15 standard
  Peak Area of MRM: 205.0/159.8 (analyte VLS-03-15 Parent): 6.26E+05

## O=C(O)CCCc1ccc(N(CCCl)CCCl)cc1 [Chlorambucil, reference compound]
Stability in PBS pH 6.5; [5]
  half-life: 47.2 min
Stability in PBS pH 6.5; Table 10
  half-life: 43.2 min
Stability in PBS pH 6.5; Table 8, 0 min
  Remaining Percentage: 100.00%
Stability in PBS pH 6.5; Table 8, 30 min
  Remaining Percentage: 64.51%
Stability in PBS pH 6.5; Table 8, 60 min
  Remaining Percentage: 42.26%
Stability in PBS pH 6.5; Table 8, 120 min
  Remaining Percentage: 16.83%
Stability in PBS pH 6.5; Table 8, 240 min
  Remaining Percentage: 2.99%
Stability in PBS pH 6.5; Table 10, 0 min
  Remaining Percentage: 100.00%
Stability in PBS pH 6.5; Table 10, 30 min
  Remaining Percentage: 61.12%
Stability in PBS pH 6.5; Table 10, 60 min
  Remaining Percentage: 43.17%
Stability in PBS pH 6.5; Table 10, 120 min
  Remaining Percentage: 15.12%
Stability in PBS pH 6.5; Table 10, 240 min
  Remaining Percentage: 2.15%

## CN(C)CCc1c[nH]c2ccccc12 [DMT, N,N-dimethyltryptamine]
[4]; at higher doses
  estimated half-life: less than fifteen minutes
[4]; converted by monoamine oxidases
  oral bioavailability: poor oral bioavailability

## CC[C@H]1OC(=O)[C@H](C)[C@@H](O[C@H]2C[C@@](C)(OC)[C@@H](O)[C@H](C)O2)[C@H](C)[C@@H](O[C@@H]2O[C@H](C)C[C@H](N(C)C)[C@H]2O)[C@](C)(O)C[C@@H](C)C(=O)[C@H](C)[C@@H](O)[C@]1(C)O [Erythromycin, reference compound]
[2]; Table 8, 0 min
  Remaining Percentage: 100.00%
[2]; Table 8, 30 min
  Remaining Percentage: 52.67%
[2]; Table 8, 60 min
  Remaining Percentage: 28.46%
[2]; Table 8, 120 min
  Remaining Percentage: 8.27%
[2]; Table 8, 240 min
  Remaining Percentage: 1.47%
[2]; [5]
  half-life: 39.5 min
[2]; Table 10, 0 min
  Remaining Percentage: 100.00%
[2]; Table 10, 30 min
  Remaining Percentage: 59.45%
[2]; Table 10, 60 min
  Remaining Percentage: 33.60%
[2]; Table 10, 120 min
  Remaining Percentage: 10.27%
[2]; Table 10, 240 min
  Remaining Percentage: 1.20%
[2]; Table 10, read-out: T½
  half-life: 37.4 min
[3]; Table 8, 0 min
  Remaining Percentage: 100.00%
[3]; Table 8, 30 min
  Remaining Percentage: 56.55%
[3]; Table 8, 60 min
  Remaining Percentage: 37.33%
[3]; Table 8, 120 min
  Remaining Percentage: 14.06%
[3]; Table 8, 240 min
  Remaining Percentage: 2.14%
[3]; [5]
  half-life: 43.6 min
[3]; Table 10, 0 min
  Remaining Percentage: 100.00%
[3]; Table 10, 30 min
  Remaining Percentage: 56.55%
[3]; Table 10, 60 min
  Remaining Percentage: 34.88%
[3]; Table 10, 120 min
  Remaining Percentage: 11.22%
[3]; Table 10, 240 min
  Remaining Percentage: 1.60%
[3]; Table 10, read-out: T½
  half-life: 40.3 min
